Test results from patent publication US20240024403A1, “Compositions and Methods for Managing Weight” (Unigen, Inc., priority 2012, published 2024).
Entries after “also recorded” stand apart in the source; their conditions may differ.

Assay: High fat diet induced obesity (DIO) mouse model
Type: in vivo, C57CL/6J mice
Design: NSAH (sum) [NASH score]: scale not given here
Details: for Total Body Weight / Body Weight: in g (unit assumed)
Experimental: C57CL/6J mice aged 4-6 weeks (Korea Research Institute of Bioscience & Biotechnology, Ohchang, Korea) were housed in Polycarbonate cages (five mice per cage) in a room with a 12 hr:12 hr light-dark cycle and an ambient temperature of 24° C. All the mice were fed a commercial chow diet for 1 week after arrival in the animal facility. Mice were then divided into normal and obesity groups and fed with normal diet (ND) and high fat diets (HFD) respectively. The HFD group was divided into multiple treatment groups: a high fat diet vehicle group (HFD), an orlistat (purchased as OTC drug Alli®) positive control treatment group (ORI, 40 mg/kg of animal weight, 2 times/day) and optionally a sibutramine positive control treatment group (10 mg/kg, 1 time/day). The HFD contained 340 g of fat/kg of HFD (310 g lard plus 30 g soybean oil; Harlan Laboratories, USA). The HFD was formulated to provide 60% of the total energy generated by the diet from fat by replacing carbohydrate energy with lard and soybean oil, whereas the normal diet (ND) group was fed a diet providing only 18% of the total diet energy from fat(Harlan Laboratories, USA).
Body weight was measured once each week and feed intake was measured twice per week. At the end of the experimental period, following a 12 hr. fasting period, the animals were anesthetized with ether, and blood was drawn from the abdominal vein. Liver and kidney and adipose tissues (epididymal, retroperitoneal, perirenal adipose tissues) were removed from each animal, rinsed with physiological saline, and weighed. Serum concentrations of glucose, total cholesterol, triglycerides, and LDL-cholesterol were determined using automatic analyzer (INTEGRA 400, Roche, Germany). Statistical significance of test results was measured using the Student's t-test.

[1] = mice fed a high fat diet, Mutamba fractions 250 mg/kg oral 2 times per day, mean
[2] = orlistat 40 mg/Kg/day oral, 8 weeks
[3] = orlistat 40 mg/kg oral, 7 weeks
[4] = orlistat 40 mg/kg, 2 times/day, listed as orlistat
[5] = score 0-3, orlistat 40 mg/kg oral
[6] = week 1, DIO mice, oral twice daily, mg/kg/day: ORI 40, Combo (Composition 1A) 800, Magnolia 100, Yerba Mate 500, Morus 200
[7] = week 1, DIO mice, combination (5:1) 1200 mg/kg twice a day by gavage, group mean
[8] = week 1, mice fed a high fat diet, Mutamba fractions 250 mg/kg oral 2 times per day, mean
[9] = week 2, DIO mice, oral twice daily, mg/kg/day: ORI 40, Combo (Composition 1A) 800, Magnolia 100, Yerba Mate 500, Morus 200
[10] = week 2, DIO mice, combination (5:1) 1200 mg/kg twice a day by gavage, group mean
[11] = week 2, mice fed a high fat diet, Mutamba fractions 250 mg/kg oral 2 times per day, mean
[12] = week 3, DIO mice, oral twice daily, mg/kg/day: ORI 40, Combo (Composition 1A) 800, Magnolia 100, Yerba Mate 500, Morus 200

Question: For CCCCCCCCCCC[C@@H](C[C@@H]1OC(=O)[C@H]1CCCCCC)OC(=O)[C@H](CC(C)C)NC=O [ORI, orlistat], which “FER (Food efficiency ratio)” value (mice fed a high fat diet, FER = body weight gain (g/day)/food intake (g/day), Mutamba fractions 250 mg/kg oral 2 times per day, mean) is on record?
Answer: 0.034

Question: What about the Body Weight Gain [1] of the same molecule?
Answer: 0.093 g/day

Question: What about the Food Intake [1] of the same molecule?
Answer: 2.769 g/day

Question: And the Absolute Organ Weight: Epididymal Fat [2]?
Answer: 2.03 g

Question: What about the Absolute Organ Weight: Liver [2] of the same molecule?
Answer: 1.19 g

Question: And the Absolute Organ Weight: PeriRenal Fat [2]?
Answer: 0.29 g

Question: And the Absolute Organ Weight: Retroperitoneal Fat [2]?
Answer: 0.5 g

Question: And the Absolute Organ Weight: Total Fat (sum of three fat pads) [2]?
Answer: 2.82 g

Question: What about the “Food Efficiency Ratio (FER)” value [2] of the same molecule?
Answer: −0.001

Question: And the “Food Intake (average)” value [2]?
Answer: 3.147 g/day

Question: And the “Relative Organ Weight: Epididymal Fat” value [2]?
Answer: 0.05

Question: And the “Relative Organ Weight: Liver” value [2]?
Answer: 0.03

Question: And the “Relative Organ Weight: PeriRenal Fat” value [2]?
Answer: 0.01

Question: And the “Relative Organ Weight: Retroperitoneal Fat” value [2]?
Answer: 0.01

Question: What about the “Relative Organ Weight: Total Fat” value [2] of the same molecule?
Answer: 0.07

Question: What about the “Weight Gain (average)” value [2] of the same molecule?
Answer: -0.004 g/day

Question: And the “Food Efficiency Ratio (FER)” value [3]?
Answer: 0.000

Question: What about the “Food Intake (average per day)” value [3] of the same molecule?
Answer: 3.195 g/day

Question: What about the “Weight Gain (average per day)” value [3] of the same molecule?
Answer: 0.000 g/day

Question: And the “blood biochemistry parameters vs HFD group” value (orlistat 40 mg/kg, 2 times/day)?
Answer: statistically significant decrease in LDL-cholesterol; also recorded: statistically significant decreases in total cholesterol, LDL-cholesterol, and fasting glucose; also recorded: statistically significant decreases in ALT and LDL-cholesterol; also recorded: statistically significant decrease in ALT

Question: What about the “body weight gain vs HFD group” value (orlistat 40 mg/kg, 2 times/day) of the same molecule?
Answer: greatest change in weight gain between week 2 and week 3; also recorded: statistically significant decreases in body weight gains each week after the first week of treatment; also recorded: statistically significant decreases in body weight gain across all weeks of the study; also recorded: statistically significant decreases in body weight gain from week 1 through to week 7; also recorded: statistically significant decreases in weight gain from week 1 through to week 8

Question: And the “body weight gain vs HFD group” value [4]?
Answer: significant reduction in body weight gain at 7 weeks

Question: And the “weight gain per day, food intake per day, food efficiency ratio (FER) vs HFD group” value [4]?
Answer: significantly reduced FER

Question: And the “Liver pathology: Hepatocellular ballooning (0-2)” value (score 0-2, orlistat 40 mg/kg oral)?
Answer: 0.67

Question: What about the “Liver pathology: Lobular Inflammation (0-3)” value [5] of the same molecule?
Answer: 1.33

Question: What about the “Liver pathology: Steatosis (0-3)” value [5] of the same molecule?
Answer: 0.67

Question: And the “NSAH (sum) [NASH score]” value (sum of scores, orlistat 40 mg/kg oral)?
Answer: 2.67

Question: And the “Total Body Weight” value (week 0, DIO mice, oral twice daily, mg/kg/day: ORI 40, Combo (Composition 1A) 800, Magnolia 100, Yerba Mate 500, Morus 200)?
Answer: 40.22

Question: What about the “Total Body Weight” value (week 0, DIO mice, combination (5:1) 1200 mg/kg twice a day by gavage, group mean) of the same molecule?
Answer: 38.40

Question: And the “Total Body Weight” value (week 0, ORI 40 mg/kg, DIO mice (Table 52))?
Answer: 39.96

Question: And the “Total Body Weight” value (week 0, ORI 40 mg/kg, DIO mice)?
Answer: 42.76

Question: And the “Body Weight” value (week 0, mice fed a high fat diet, Mutamba fractions 250 mg/kg oral 2 times per day, mean)?
Answer: 39.76

Question: What about the “Weight Gain” value [6] of the same molecule?
Answer: −2.24

Question: And the “Total Body Weight” value [6]?
Answer: 37.98

Question: And the “Body Weight Gain” value (week 1, DIO mice, SIB 10 mg/kg, ORI 40 mg/kg, Mutamba extract 32 (G1) 1000 mg/kg/day oral, mean)?
Answer: −2.59

Question: And the “Body Weight Gain” value (week 1, DIO mice, SIB 10 mg/kg, ORI 40 mg/kg, Mutamba extract 33-2 G1 1000 mg/kg, mean)?
Answer: −3.05

Question: What about the “Weight Gain” value (week 1, DIO mice, combination (1:1) 2000 mg/kg twice a day, group mean) of the same molecule?
Answer: −3.20

Question: What about the “Weight Gain” value [7] of the same molecule?
Answer: −3.20

Question: What about the “Total Body Weight” value [7] of the same molecule?
Answer: 35.20

Question: What about the “Total Body Weight” value (week 1, ORI 40 mg/kg, DIO mice (Table 52)) of the same molecule?
Answer: 37.37

Question: What about the “Total Body Weight” value (week 1, ORI 40 mg/kg, DIO mice) of the same molecule?
Answer: 38.73

Question: What about the “Body Weight Gain” value (week 1, ORI 40 mg/kg, mice fed high fat diet) of the same molecule?
Answer: −4.00

Question: What about the “Body Weight Gain” value [8] of the same molecule?
Answer: −3.05

Question: What about the “Body Weight” value [8] of the same molecule?
Answer: 36.71

Question: What about the “Weight Gain” value (week 1, orlistat 40 mg/kg oral) of the same molecule?
Answer: −5.43

Question: What about the “Weight Gain” value [9] of the same molecule?
Answer: −6.14

Question: What about the “Total Body Weight” value [9] of the same molecule?
Answer: 34.08

Question: And the “Body Weight Gain” value (week 2, DIO mice, SIB 10 mg/kg, ORI 40 mg/kg, Mutamba extract 32 (G1) 1000 mg/kg/day oral, mean)?
Answer: −2.90

Question: What about the “Body Weight Gain” value (week 2, DIO mice, SIB 10 mg/kg, ORI 40 mg/kg, Mutamba extract 33-2 G1 1000 mg/kg, mean) of the same molecule?
Answer: −2.81

Question: What about the “Weight Gain” value (week 2, DIO mice, combination (1:1) 2000 mg/kg twice a day, group mean) of the same molecule?
Answer: −4.88

Question: And the “Weight Gain” value [10]?
Answer: −4.88

Question: What about the “Total Body Weight” value [10] of the same molecule?
Answer: 33.58

Question: And the “Total Body Weight” value (week 2, ORI 40 mg/kg, DIO mice (Table 52))?
Answer: 37.05

Question: What about the “Total Body Weight” value (week 2, ORI 40 mg/kg, DIO mice) of the same molecule?
Answer: 35.09

Question: What about the “Body Weight Gain” value (week 2, ORI 40 mg/kg, mice fed high fat diet) of the same molecule?
Answer: −7.38

Question: And the “Body Weight Gain” value [11]?
Answer: −2.81

Question: What about the “Body Weight” value [11] of the same molecule?
Answer: 36.95

Question: And the “Weight Gain” value (week 2, orlistat 40 mg/kg oral)?
Answer: −6.69

Question: What about the “Weight Gain” value [12] of the same molecule?
Answer: −4.91

Question: What about the “Total Body Weight” value [12] of the same molecule?
Answer: 35.32

Question: And the “Body Weight Gain” value (week 3, DIO mice, SIB 10 mg/kg, ORI 40 mg/kg, Mutamba extract 32 (G1) 1000 mg/kg/day oral, mean)?
Answer: −2.55

Question: And the “Body Weight Gain” value (week 3, DIO mice, SIB 10 mg/kg, ORI 40 mg/kg, Mutamba extract 33-2 G1 1000 mg/kg, mean)?
Answer: −2.63

Question: What about the “Weight Gain” value (week 3, DIO mice, combination (1:1) 2000 mg/kg twice a day, group mean) of the same molecule?
Answer: −3.34

Question: What about the “Weight Gain” value (week 3, DIO mice, combination (5:1) 1200 mg/kg twice a day by gavage, group mean) of the same molecule?
Answer: −3.34
